In general, IC50 refers to the concentration that gives 50% inhibition. High values mean weaker potency in that assay, low ones greater potency in that assay.

In test [1] the target is T1, phosphorylated ERBB2 (pERBB2) (Homo sapiens, UniProt P04626).
T1 construct: endogenous in cells; host or cells: BT-474
The test can be described thus: Detection of phosphorylated ERBB2 (pERBB2) by ELISA in BT-474 cells. In kind it is cell-based. Particulars: four hour incubation. The gist of the method: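 BT-474 cells were treated with compounds (fourfold dilutions, 10 μM to 0.01 nM final) for 4 h at 37 °C, then lysed. pERBB2 in lysates was quantified by ELISA with an HRP anti-phosphotyrosine detection antibody and TMB read at 450 nm; % relative activity was normalized to no-cell and 0.1% DMSO controls.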
A general note: An ELISA detects its analyte on a solid surface through an enzyme-linked reagent.

Test [2] deals with T2, phosphorylated EGFR (pEGFR) (Homo sapiens, UniProt P00533).
T2 construct: performed to measure phosphorylated EGFR levels using A431 cells (10% FBS); endogenous in cells; host or cells: A431
Description: Detection of phosphorylated EGFR (pEGFR) by AlphaLISA in EGF-stimulated A431 cells. In kind it is cell-based. Particulars: A431 cells (10% FBS), 4 hours incubation, EGF 30 ng/mL for 10 minutes. Summed up:
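pEGFR was quantified by AlphaLISA in lysates of A431 cells (10% FBS) given a 10 min pulse of EGF at 30 ng/mL after 4 h compound exposure at 37 °C. IC50 came from a four-parameter fit of % inhibition between DMSO and staurosporine controls.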
(In Alpha technology, singlet oxygen from a donor bead excites a nearby acceptor bead.)

In the next test the target is Ba/F3 ERBB2 YVMA (Homo sapiens, UniProt P04626, DUP772-775, cells depend on it). The test can be described thus: Cell viability assay (CellTiter Glo), Ba/F3 cells engineered to express ERBB2 YVMA. In kind it is cell-based, mouse. The settings on record: Ba/F3 cells expressing human ERBB2 YVMA mutant, 72 hours, read-out: Ba/F3 ERBB2 YVMA, IC50. As to the method:
Cells were treated with compounds, and cell viability was measured as a metric of kinase inhibition.
BT-474, A431, MDA-MB-175VII, NCI-H1781, MCF7, and Ba/F3 cell lines were tested. The Ba/F3 cell line is IL-3-dependent mouse cell line derived from the C3H mouse strain. Ba/F3 cell lines were engineered to express human ERBB2 or EGFR kinases, rendering the cells IL-3 independent. The lines were generated via retroviral transduction utilizing a Moloney murine leukemia virus (MMLV) promoter, and constructs are stably integrated into the cell genome. The sequences of the ERBB2 and EGFR genes used were NCBI Reference Sequences NM_004448.3 and NM_005228.3, respectively.
BT-474, A431, MDA-MB-175VII, NCI-H1781 and MCF7 cells were grown in the appropriate growth medium as described in Table B2 below, and harvested at 50-80% confluence. BT-474, A431, MDA-MB-175VII, NCI-H1781 and MCF7 cells were counted and seeded at 2,000 or 1,500 cells per well in 384-well tissue culture plates (see Table B2). Similarly, Ba/F3 cell lines engineered to express EGFR, ERBB2, or ERBB2 mutants were grown, harvested, counted and seeded at 3000 cells per well in 96-well plates. A subset of wells contained media only (low control, “LC”).
Table B1 provides the growth media and number of cells seeded per well for the each cell line.
Compounds were dissolved in DMSO and serially diluted. Serially-diluted compound or a DMSO only control (high control, “HC”) was added to the plated cells in each well. Compounds were tested at concentrations of about 10 μM to 0.51 nM, using three-fold dilutions. The final proportion of DMSO never exceeded 0.1%.
Plates were placed in a 37° C., 5% CO2 incubator for 72 hours. Plates were then removed from the incubator and equilibrated for 15 minutes at room temperature. 40 μl of CellTiter Glo reagent (Promega) was added to measure the relative level of metabolically active cells by quantifying intracellular ATP concentrations. Plates were incubated for 30 minutes at room temperature, and luminescence was measured. Percent viability was normalized to a vehicle control only using the following formula: % viability=100×(Lumsample−LumLC)/(LumHC−LumLC). Graphical curves were fitted using a nonlinear regression model with a sigmoidal dose response.
For orientation: In ATP-based viability assays light output follows the ATP content of the culture.

T2 sequence (P00533 25-1210): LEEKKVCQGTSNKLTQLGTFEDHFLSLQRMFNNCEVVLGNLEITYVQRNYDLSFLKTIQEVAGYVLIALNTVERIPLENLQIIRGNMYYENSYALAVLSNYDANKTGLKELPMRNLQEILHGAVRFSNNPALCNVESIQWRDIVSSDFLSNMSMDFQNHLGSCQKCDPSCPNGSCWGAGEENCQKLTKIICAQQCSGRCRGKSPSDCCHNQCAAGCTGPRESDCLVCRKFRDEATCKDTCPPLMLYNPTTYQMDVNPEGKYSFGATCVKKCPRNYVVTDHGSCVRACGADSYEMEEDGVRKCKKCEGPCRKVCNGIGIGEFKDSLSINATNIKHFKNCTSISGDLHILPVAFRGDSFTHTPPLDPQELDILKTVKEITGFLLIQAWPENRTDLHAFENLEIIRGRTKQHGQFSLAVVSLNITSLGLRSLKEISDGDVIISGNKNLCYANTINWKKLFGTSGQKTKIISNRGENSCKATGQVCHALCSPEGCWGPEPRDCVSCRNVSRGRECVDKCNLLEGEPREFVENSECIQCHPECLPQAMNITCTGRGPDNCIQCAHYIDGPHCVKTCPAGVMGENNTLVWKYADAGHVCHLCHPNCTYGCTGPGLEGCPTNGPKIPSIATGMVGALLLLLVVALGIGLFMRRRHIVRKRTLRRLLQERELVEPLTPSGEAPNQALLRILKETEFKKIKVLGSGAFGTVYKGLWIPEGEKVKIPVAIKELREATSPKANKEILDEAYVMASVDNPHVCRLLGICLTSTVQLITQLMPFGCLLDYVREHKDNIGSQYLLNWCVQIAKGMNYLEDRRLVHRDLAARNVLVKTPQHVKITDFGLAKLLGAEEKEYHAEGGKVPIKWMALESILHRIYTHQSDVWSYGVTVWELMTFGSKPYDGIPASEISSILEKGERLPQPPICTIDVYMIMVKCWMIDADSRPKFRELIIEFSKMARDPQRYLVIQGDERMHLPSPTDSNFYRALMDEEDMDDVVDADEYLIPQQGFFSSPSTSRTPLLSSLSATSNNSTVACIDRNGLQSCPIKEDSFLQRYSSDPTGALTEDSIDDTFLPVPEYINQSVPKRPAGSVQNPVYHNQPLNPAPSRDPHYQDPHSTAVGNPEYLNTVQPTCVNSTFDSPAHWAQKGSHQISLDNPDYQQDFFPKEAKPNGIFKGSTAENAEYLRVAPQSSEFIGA
T1 sequence (P04626 23-1255): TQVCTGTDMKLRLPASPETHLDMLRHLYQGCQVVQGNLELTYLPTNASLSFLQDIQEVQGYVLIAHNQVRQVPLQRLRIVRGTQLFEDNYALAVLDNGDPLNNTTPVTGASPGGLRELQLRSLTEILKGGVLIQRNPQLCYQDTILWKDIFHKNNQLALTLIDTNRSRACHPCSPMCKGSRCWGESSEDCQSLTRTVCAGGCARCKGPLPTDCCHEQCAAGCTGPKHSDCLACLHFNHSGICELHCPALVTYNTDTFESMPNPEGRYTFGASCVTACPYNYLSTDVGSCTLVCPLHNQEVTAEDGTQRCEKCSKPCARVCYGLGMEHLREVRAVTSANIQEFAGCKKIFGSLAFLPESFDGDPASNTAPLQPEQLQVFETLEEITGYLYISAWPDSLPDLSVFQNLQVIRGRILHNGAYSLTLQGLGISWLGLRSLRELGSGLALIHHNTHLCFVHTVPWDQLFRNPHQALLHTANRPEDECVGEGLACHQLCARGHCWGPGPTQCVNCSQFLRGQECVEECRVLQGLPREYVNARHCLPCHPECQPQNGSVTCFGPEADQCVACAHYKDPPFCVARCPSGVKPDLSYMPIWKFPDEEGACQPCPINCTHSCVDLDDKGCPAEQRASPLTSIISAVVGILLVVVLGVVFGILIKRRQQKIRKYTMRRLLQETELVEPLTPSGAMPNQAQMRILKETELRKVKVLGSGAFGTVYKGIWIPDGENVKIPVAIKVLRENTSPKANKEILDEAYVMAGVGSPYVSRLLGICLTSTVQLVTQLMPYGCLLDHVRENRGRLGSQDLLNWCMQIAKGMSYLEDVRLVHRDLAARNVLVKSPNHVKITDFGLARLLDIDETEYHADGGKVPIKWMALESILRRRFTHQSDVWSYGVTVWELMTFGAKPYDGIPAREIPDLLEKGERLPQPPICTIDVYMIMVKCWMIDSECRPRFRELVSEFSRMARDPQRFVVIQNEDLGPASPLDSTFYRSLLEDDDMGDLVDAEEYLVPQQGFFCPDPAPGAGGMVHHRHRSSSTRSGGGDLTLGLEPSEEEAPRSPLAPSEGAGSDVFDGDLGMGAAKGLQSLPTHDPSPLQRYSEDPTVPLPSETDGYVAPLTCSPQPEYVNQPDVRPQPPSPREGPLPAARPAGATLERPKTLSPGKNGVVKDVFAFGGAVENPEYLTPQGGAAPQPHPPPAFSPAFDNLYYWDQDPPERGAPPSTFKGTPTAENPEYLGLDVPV
Sequence of Ba/F3 ERBB2 YVMA (P04626 with tags, fused parts or gaps DUP772-775): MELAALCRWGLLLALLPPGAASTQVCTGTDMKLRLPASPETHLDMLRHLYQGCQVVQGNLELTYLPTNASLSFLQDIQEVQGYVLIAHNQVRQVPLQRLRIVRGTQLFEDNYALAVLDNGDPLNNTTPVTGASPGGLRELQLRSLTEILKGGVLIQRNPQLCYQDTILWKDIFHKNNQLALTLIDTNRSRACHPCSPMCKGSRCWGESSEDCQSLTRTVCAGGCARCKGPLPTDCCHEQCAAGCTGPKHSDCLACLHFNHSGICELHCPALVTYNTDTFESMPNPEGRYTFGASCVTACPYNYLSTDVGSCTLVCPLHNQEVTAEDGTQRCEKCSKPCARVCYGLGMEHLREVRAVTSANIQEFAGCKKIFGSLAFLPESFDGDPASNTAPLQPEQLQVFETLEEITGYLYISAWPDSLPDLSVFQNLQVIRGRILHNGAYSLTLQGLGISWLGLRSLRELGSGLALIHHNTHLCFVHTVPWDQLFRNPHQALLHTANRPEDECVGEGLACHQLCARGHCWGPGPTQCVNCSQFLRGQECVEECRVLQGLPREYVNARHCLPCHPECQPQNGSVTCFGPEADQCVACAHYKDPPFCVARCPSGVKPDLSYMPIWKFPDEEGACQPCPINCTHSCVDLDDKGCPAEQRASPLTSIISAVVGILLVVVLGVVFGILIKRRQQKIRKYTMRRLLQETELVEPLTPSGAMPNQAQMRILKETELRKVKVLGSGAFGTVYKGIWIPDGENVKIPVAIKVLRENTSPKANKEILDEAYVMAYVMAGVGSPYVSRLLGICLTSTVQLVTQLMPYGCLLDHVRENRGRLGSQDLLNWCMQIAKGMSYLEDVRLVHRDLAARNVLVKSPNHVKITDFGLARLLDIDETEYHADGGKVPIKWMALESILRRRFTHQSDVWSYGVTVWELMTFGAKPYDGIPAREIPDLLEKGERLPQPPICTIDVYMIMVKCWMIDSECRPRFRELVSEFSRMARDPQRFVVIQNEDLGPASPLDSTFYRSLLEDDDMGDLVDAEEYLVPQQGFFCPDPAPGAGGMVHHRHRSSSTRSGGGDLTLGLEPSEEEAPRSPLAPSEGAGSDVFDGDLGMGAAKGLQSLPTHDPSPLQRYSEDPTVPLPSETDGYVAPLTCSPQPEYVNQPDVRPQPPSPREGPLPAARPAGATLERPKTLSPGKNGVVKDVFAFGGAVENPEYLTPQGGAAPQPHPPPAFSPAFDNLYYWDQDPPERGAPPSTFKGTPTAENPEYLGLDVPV

Turning to `CC#CC(=O)N1CCN2c3nc4c(Nc5ccc(Oc6ccn7ncnc7c6)c(C)c5)ncnc4cc3OC[C@@H]2C1` [Compound 32, (S)-1-(11-((4-([1,2,4]triazolo[1,5-a]pyridin-7-yloxy)-3-methylphenyl)amino)-1,2,4a,5-tetrahydropyrazino[1,2-d]pyrimido[4′,5′:5,6]pyrido[3,2-b][1,4]oxazin-3(4H)-yl)but-2-yn-1-one], the IC50 in test [1] was 51.4 nM; in test [2], 4770 nM. Moreover, the GI50 at Ba/F3 ERBB2 YVMA was found to be 18.3 nM.

Consider `Cc1cc(Nc2ncnc3cnc4c(c23)OC[C@H]2CN4CCN2C(=O)/C=C/CN(C)C)ccc1Oc1ccn2ncnc2c1` [Compound 82, (E)-1-((3R)-13-((4-([1,2,4]triazolo[1,5-a]pyridin-7-yloxy)-3-methylphenyl)amino)-2,3,5,6-tetrahydro-4H-3,7-methanopyrimido[5′,4′:4,5]pyrido[3,2-b][1,4,7]oxadiazonin-4-yl)-4-(dimethylamino)but-2-en-1-one], for which the IC50 in test [1] came to 7.9 nM; in test [2], 199 nM. Besides, on Ba/F3 ERBB2 YVMA, the GI50 turned out to be 6.9 nM.

Take `Cc1cc(Nc2ncnc3ccc4c(c23)OC[C@H]2CN4CCN2C)ccc1Oc1ccn2ncnc2c1` [Compound 52, (3R)—N-(4-([1,2,4]triazolo[1,5-a]pyridin-7-yloxy)-3-methylphenyl)-4-methyl-3,4,5,6-tetrahydro-2H-3,7-methano[1,4,7]oxadiazonino[2,3-f]quinazolin-13-amine]: the IC50 in test [1] was 219 nM; in test [2], > 10000 nM. The GI50 on Ba/F3 ERBB2 YVMA was > 500 nM.

For `Cc1cc(Nc2ncnc3ccc4c(c23)O[C@@H]2CCN(C)C[C@@H]2N4C)ccc1Oc1ccc2c(c1)ncn2C` [Compound 123, (7aS,11aR)-7,9-dimethyl-N-(3-methyl-4-((1-methyl-1H-benzo[d]imidazol-5-yl)oxy)phenyl)-7a,8,9,10,11,11a-hexahydro-7H-pyrido[3′,4′:5,6][1,4]oxazino[2,3-f]quinazolin-1-amine], the IC50 in test [2] was > 10000 nM. The GI50 on Ba/F3 ERBB2 YVMA is 46.4 nM.

Take `CN(C)C/C=C/C(=O)N1CCN2C[C@@H]1COc1c2ccc2ncnc(Nc3cc(F)c(Oc4ccn5ncnc5c4)cc3F)c12` [Compound 96, (E)-1-((3R)-13-((4-([1,2,4]triazolo[1,5-a]pyridin-7-yloxy)-2,5-difluorophenyl)amino)-2,3,5,6-tetrahydro-4H-3,7-methano[1,4,7]oxadiazonino[2,3-f]quinazolin-4-yl)-4-(dimethylamino)but-2-en-1-one]: the IC50 in test [1] came out at 19.1 nM; in test [2] it was 221 nM. In addition, the GI50 at Ba/F3 ERBB2 YVMA amounted to 9.12 nM.

On to `Cc1cc(Nc2ncnc3cnc4c(c23)O[C@@H]2CCNC[C@H]2N4C)ccc1Oc1ccc2c(c1)ncn2C` [Compound 135, (7aR,11aR)-7-methyl-N-(3-methyl-4-((1-methyl-1H-benzo[d]imidazol-5-yl)oxy)phenyl)-7a,8,9,10,11,11a-hexahydro-7H-pyrido[4,3-b]pyrimido[5′,4′:4,5]pyrido[2,3-e][1,4]oxazin-1-amine], for which the IC50 in test [1] was 56.1 nM; in test [2], > 10000 nM. Besides, the GI50 on Ba/F3 ERBB2 YVMA was determined as 88.9 nM.

With `CN(C)C/C=C/C(=O)N1CCN2c3ccc4ncnc(Nc5ccc(Oc6ccn7ncnc7c6)c(F)c5)c4c3OC[C@H]2C1` [Compound 118, (R,E)-1-(4-((4-([1,2,4]triazolo[1,5-a]pyridin-7-yloxy)-3-fluorophenyl)amino)-6a,7,9,10-tetrahydropyrazino[1′,2′:4,5][1,4]oxazino[2,3-f]quinazolin-8(6H)-yl)-4-(dimethylamino)but-2-en-1-one], the results for the IC50 in test [1] and in test [2] were 25 nM and 3120 nM, respectively. Also, the GI50 on Ba/F3 ERBB2 YVMA was 35.7 nM.

With `Cc1cc(Nc2ncnc3ccc4c(c23)O[C@@H]2CCN(C)C[C@@H]2N4C)ccc1Oc1ccc2c(c1)ncn2C` [Compound 129, (7aS,11aR)-7,9-dimethyl-N-(3-methyl-4-((1-methyl-1H-benzo[d]imidazol-5-yl)oxy)phenyl)-7a,8,9,10,11,11a-hexahydro-7H-pyrido[3′,4′:5,6][1,4]oxazino[2,3-f]quinazolin-1-amine], the IC50 in test [2] is > 10000 nM. At Ba/F3 ERBB2 YVMA, the GI50 was 111 nM.

As to `Cc1cc(Nc2ncnc3ccc4c(c23)OC[C@H]2COCCN42)ccc1Oc1ccc2c(c1)ncn2C` [Compound 108, (R)—N-(3-methyl-4-((1-methyl-1H-benzo[d]imidazol-5-yl)oxy)phenyl)-6a,7,9,10-tetrahydro-6H-[1,4]oxazino[4′,3′:4,5][1,4]oxazino[2,3-f]quinazolin-4-amine], the IC50 in test [1] came out at 57.2 nM; in test [2], 9520 nM.

Turning to `Cc1cc(Nc2ncnc3cc4c(nc23)N2CCNC[C@@H]2CO4)ccc1Oc1ccc2c(c1)ncn2C` [Compound 39, (R)—N-(3-methyl-4-((1-methyl-1H-benzo[d]imidazol-5-yl)oxy)phenyl)-1,2,3,4,4a,5-hexahydropyrazino[1,2-d]pyrimido[4′,5′:5,6]pyrido[3,2-b][1,4]oxazin-11-amine], the IC50 was 279 nM in test [1] and > 10000 nM in test [2].

Regarding `Cc1cc(Nc2ncnc3cc4c(nc23)N2CCN(C)C[C@@H]2CO4)ccc1Oc1ccc2c(c1)ncn2C` [Compound 40, (R)-3-methyl-N-(3-methyl-4-((1-methyl-1H-benzo[d]imidazol-5-yl)oxy)phenyl)-1,2,3,4,4a,5-hexahydropyrazino[1,2-d]pyrimido[4′,5′:5,6]pyrido[3,2-b][1,4]oxazin-11-amine], the IC50 in test [1] is 153 nM; in test [2], > 10000 nM.

With `Cc1cc(Nc2ncnc3ccc4c(c23)OC[C@H]2CCCN42)ccc1Oc1ccn2ncnc2c1` [Compound 87, (R)—N-(4-([1,2,4]triazolo[1,5-a]pyridin-7-yloxy)-3-methylphenyl)-6a,7,8,9-tetrahydro-6H-pyrrolo[1′,2′:4,5][1,4]oxazino[2,3-f]quinazolin-4-amine], the IC50 in test [1] is 75.5 nM; in test [2], > 10000 nM.

With `Cc1cc(Nc2ncnc3ccc4c(c23)OC[C@H]2CN(C)CCN42)ccc1Oc1ccc2c(c1)ncn2C` [Compound 46, (R)-8-methyl-N-(3-methyl-4-((1-methyl-1H-benzo[d]imidazol-5-yl)oxy)phenyl)-6,6a,7,8,9,10-hexahydropyrazino[1′,2′:4,5][1,4]oxazino[2,3-f]quinazolin-4-amine], the IC50 in test [1] was 22.3 nM; in test [2], > 10000 nM.

Regarding `Cc1c(Oc2ccn3ncnc3c2)ccc(Nc2ncnc3cc4c(nc23)N2CCOC[C@H]2CO4)c1F` [Compound 102, (S)—N-(4-([1,2,4]triazolo[1,5-a]pyridin-7-yloxy)-2-fluoro-3-methylphenyl)-1,2,4a,5-tetrahydro-4H-[1,4]oxazino[4,3-d]pyrimido[4′,5′:5,6]pyrido[3,2-b][1,4]oxazin-11-amine], the IC50 was 257 nM in test [1] and > 10000 nM in test [2].

On to `Cc1cc(Nc2ncnc3cc4c(cc23)N2CCNC[C@H]2CO4)ccc1Oc1ccc2c(c1)ncn2C` [Compound 61, (S)—N-(3-methyl-4-((1-methyl-1H-benzo[d]imidazol-5-yl)oxy)phenyl)-1,2,3,4,4a,5-hexahydropyrazino[1′,2′:4,5][1,4]oxazino[3,2-g]quinazolin-11-amine], for which the IC50 in test [1] is 118 nM; in test [2] it was > 10000 nM.

For the compound `Cc1ccc(Oc2ccc(Nc3ncnc4cc5c(nc34)N3CCN(C)C[C@H]3CO5)cc2C)cn1` [Compound 73, (S)-3-methyl-N-(3-methyl-4-((6-methylpyridin-3-yl)oxy)phenyl)-1,2,3,4,4a,5-hexahydropyrazino[1,2-d]pyrimido[4′,5′:5,6]pyrido[3,2-b][1,4]oxazin-11-amine], the values for the IC50 in test [1] and in test [2] were 198 nM and > 10000 nM, respectively.
